From paper PMC7580834, “Inhibition mechanism of naphthylphenylamine derivatives acting on the CDC25B dual phosphatase and analysis of the molecular processes involved in the high cytotoxicity exerted by one selected derivative in melanoma cells” (Journal of Enzyme Inhibition and Medicinal Chemistry, 2020) come the findings set out here.

Experiment [1] addresses T1, CDC25B (Homo sapiens, UniProt P30305).
T1 sequence (P30305 377-551 isoform P30305-2 limits assumed): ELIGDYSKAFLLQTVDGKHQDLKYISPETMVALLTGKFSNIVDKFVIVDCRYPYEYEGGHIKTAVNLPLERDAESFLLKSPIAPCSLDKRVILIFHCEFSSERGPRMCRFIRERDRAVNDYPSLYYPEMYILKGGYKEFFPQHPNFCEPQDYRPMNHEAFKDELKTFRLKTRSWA
The experiment is described as follows: Intrinsic fluorescence quenching of recombinant CDC25B catalytic domain (Stern-Volmer). The class given is binding. On the procedure: Fluorescence spectra were recorded at 20 °C using a computer-assisted Cary Eclipse spectrofluorimeter (Varian, Palo Alto, CA, USA) equipped with an electronic temperature controller. The excitation wavelength was set at 280 nm and the excitation and emission slits were set at 10 and 20 nm, respectively. A 500 µL final volume of a 0.2 µM solution of CDC25B or CDC25B-C473S dissolved in 20 mM Tris•HCl, pH 7.8, 0.5 mM TCEP was directly prepared in the fluorimetric cuvette in the absence or in the presence of OMFP and/or some NPA derivatives. Serial pre-dilutions of the NPA derivatives or OMFP at increasing concentration were prepared in DMSO or methanol, respectively. Alongside, a convenient amount of the enzyme pre-dilution was prepared just before its usage for the experiment and stored on ice. When the combined effect of NPA derivative and OMFP was investigated, two enzyme pre-dilutions were prepared in the absence or in the presence of 5 µM OMFP. In order to evaluate the specific effect produced by any addition of solvent/ligand on the intrinsic fluorescence of the enzyme, 495 µL of the enzyme pre-dilution were placed in the fluorimetric cuvette and the relative spectrum was recorded; after the addition of 5 µL of each pre-dilution of solvent/ligand and fast mixing, the spectrum was recorded again. This procedure, repeated for each experimental point, allowed a normalisation of the specific effects produced by solvent/ligands. Furthermore, a correction was also applied for the little inner-filter effect due to the absorbance at 280 nm of the NPA derivative used at different concentrations; on the other hand, no correction was necessary for OMFP. All spectra, recorded at a scan speed of 120 nm/min, were normalised and corrected.

The target in experiment [2] is T2, CDC25B (Homo sapiens, UniProt P30305).
T2 sequence (P30305 1-580): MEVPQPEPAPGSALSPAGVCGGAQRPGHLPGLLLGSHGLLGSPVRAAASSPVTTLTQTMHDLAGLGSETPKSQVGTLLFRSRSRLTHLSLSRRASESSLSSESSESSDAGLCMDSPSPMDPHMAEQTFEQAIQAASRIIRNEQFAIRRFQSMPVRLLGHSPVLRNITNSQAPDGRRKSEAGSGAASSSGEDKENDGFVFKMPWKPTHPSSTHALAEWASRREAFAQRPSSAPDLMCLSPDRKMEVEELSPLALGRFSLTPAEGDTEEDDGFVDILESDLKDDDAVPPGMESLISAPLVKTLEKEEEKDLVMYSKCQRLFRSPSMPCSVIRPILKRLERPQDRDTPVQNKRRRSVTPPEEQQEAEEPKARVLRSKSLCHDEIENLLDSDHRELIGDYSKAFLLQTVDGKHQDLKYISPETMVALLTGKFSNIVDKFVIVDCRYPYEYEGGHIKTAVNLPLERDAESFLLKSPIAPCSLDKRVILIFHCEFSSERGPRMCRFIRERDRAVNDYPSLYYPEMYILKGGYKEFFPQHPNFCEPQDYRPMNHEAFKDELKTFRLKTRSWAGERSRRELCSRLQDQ
The experiment is described as follows: Kinetic studies of CDC25B phosphatase inhibition (OMFP substrate). The class given is biochemical. The following applies: putative from Lineweaver-Burk plots (ref 18), confirmed by the fluorescence studies of this work.

A further experiment relates to caspase-3 in A2058 cells. Nature of the experiment: Caspase-3 fluorimetric activity assay in cell lysates. In kind it is cell-based, human. The following applies: 10 µM, 24 h. The method, then:
(§1) The caspase-3 and caspase-9 enzymatic activity was measured by using caspase-3 and -9 fluorimetric assay kits, respectively, according to the manufacturer’s protocol. Briefly, cells were seeded into 75 cm^2 plates (2 × 10^6 cells/plate) and after 24 h treated with 4a or 0.5% (v/v) DMSO for 24 h. At the end of incubation, cells were collected, washed with phosphate-buffered saline constituted by 10 mM Na2HPO4, 2 mM KH2PO4, pH 7.4, supplemented with 137 mM NaCl and 2.7 mM KCl (PBS), and finally lysed at 4 °C in the cell lysis buffer. Cell lysates were incubated with 50 µM DEVD-AFC or LEHD-AFC substrates at 37 °C for 2 h, to detect caspase-3 or caspase-9 activity, respectively, using a Cary Eclipse spectrofluorimeter. Excitation and emission wavelengths were set at 400 nm and 505 nm, respectively; both excitation and emission slits were set at 10 nm.

A further experiment has as its system caspase-3 in A375 cells. The experiment is described as above. In kind it is cell-based, human. The following applies: 10 µM, 24 h. On the procedure: as §1
The test system of a further experiment is caspase-9 in A2058 cells. The experiment is described as follows: Caspase-9 fluorimetric activity assay in cell lysates. The class given is cell-based, human. The following applies: 10 µM, 24 h. The method, then:
as §1

The test system of another experiment is caspase-9 in A375 cells. The description is as above. The class given is cell-based, human. The following applies: 10 µM, 24 h. The method, then:
as §1

pKd: −log10 of the molar value. Bounds are passed on as bounds.

On to `CCOC(=O)c1cccc(Nc2cc(OC)cc3ccccc23)c1` [4a], for which the “KSV (Stern-Volmer constant)” value at CDC25B [1] (0.2 µM wild-type CDC25B, emission 357 nm, 20 °C, no OMFP) was 0.010 µM⁻¹. Moreover, the pKd on CDC25B [1] (reciprocal of KSV, inhibitor concentration leading to 50% quenching of CDC25B emission, read-out: K′D of the complex, Free CDC25B•inhibitor) was below 4.30. Moreover, the Inhibition mechanism result on CDC25B [2] was “uncompetitive”. In addition, the “enzymatic activity of caspase-3” value with caspase-3 in A2058 cells and with caspase-3 in A375 cells was “statistically significant increase” in each case. Further, the “enzymatic activity of caspase-9” value in the experiment with caspase-9 in A2058 cells and in the experiment with caspase-9 in A375 cells was “statistically significant increase” each time.
